Laboratory results taken from ChEMBL document CHEMBL5230103, “Hydroxamic acid hybrids as the potential anticancer agents: An Overview” (Eur J Med Chem, 2020).
Each block holds one molecule with its values, some of them ahead of it.

Experiments:
PC-3 [1] = assay: Potency index, ratio of vorinostat IC50 to test compound IC50 for cytotoxicity against human PC-3 cells assessed as inhibition of cell growth by SRB assay; assay type: functional
ASPC1 [2] = assay: Potency index, ratio of vorinostat IC50 to test compound IC50 for cytotoxicity against human ASPC1 cells assessed as inhibition of cell growth by SRB assay; assay type: functional
SW-620 [3] = assay: Cytotoxicity against human SW620 cells assessed as inhibition of cell growth by SRB assay; assay type: functional, cell-based
PC-3 [4] = assay: Cytotoxicity against human PC-3 cells assessed as inhibition of cell growth by SRB assay; assay type: functional, cell-based
SW-620 [5] = assay: Potency index, ratio of vorinostat IC50 to test compound IC50 for cytotoxicity against human SW620 cells assessed as inhibition of cell growth by SRB assay; assay type: functional
Histone deacetylase 2 = Histone deacetylase 2 (Homo sapiens, UniProt Q92769); assay: Inhibition of HDAC2 (unknown origin)
ASPC1 [6] = assay: Cytotoxicity against human ASPC1 cells assessed as inhibition of cell growth by SRB assay; assay type: functional, cell-based
Histone deacetylase 3 = Histone deacetylase 3 (Homo sapiens, UniProt O15379); assay: Inhibition of HDAC3 (unknown origin)
Histone deacetylase 1 = Histone deacetylase 1 (Homo sapiens, UniProt Q13547); assay: Inhibition of HDAC1 (unknown origin)
A549 [7] = assay: Cytotoxicity against human A549 cells assessed as inhibition of cell growth by SRB assay; assay type: functional
[8] = target: T1, Protein deacetylase HDAC6 (Homo sapiens, UniProt Q9UBN7); assay: Inhibition of HDAC6 (unknown origin)
T1 sequence (Q9UBN7 whole entry): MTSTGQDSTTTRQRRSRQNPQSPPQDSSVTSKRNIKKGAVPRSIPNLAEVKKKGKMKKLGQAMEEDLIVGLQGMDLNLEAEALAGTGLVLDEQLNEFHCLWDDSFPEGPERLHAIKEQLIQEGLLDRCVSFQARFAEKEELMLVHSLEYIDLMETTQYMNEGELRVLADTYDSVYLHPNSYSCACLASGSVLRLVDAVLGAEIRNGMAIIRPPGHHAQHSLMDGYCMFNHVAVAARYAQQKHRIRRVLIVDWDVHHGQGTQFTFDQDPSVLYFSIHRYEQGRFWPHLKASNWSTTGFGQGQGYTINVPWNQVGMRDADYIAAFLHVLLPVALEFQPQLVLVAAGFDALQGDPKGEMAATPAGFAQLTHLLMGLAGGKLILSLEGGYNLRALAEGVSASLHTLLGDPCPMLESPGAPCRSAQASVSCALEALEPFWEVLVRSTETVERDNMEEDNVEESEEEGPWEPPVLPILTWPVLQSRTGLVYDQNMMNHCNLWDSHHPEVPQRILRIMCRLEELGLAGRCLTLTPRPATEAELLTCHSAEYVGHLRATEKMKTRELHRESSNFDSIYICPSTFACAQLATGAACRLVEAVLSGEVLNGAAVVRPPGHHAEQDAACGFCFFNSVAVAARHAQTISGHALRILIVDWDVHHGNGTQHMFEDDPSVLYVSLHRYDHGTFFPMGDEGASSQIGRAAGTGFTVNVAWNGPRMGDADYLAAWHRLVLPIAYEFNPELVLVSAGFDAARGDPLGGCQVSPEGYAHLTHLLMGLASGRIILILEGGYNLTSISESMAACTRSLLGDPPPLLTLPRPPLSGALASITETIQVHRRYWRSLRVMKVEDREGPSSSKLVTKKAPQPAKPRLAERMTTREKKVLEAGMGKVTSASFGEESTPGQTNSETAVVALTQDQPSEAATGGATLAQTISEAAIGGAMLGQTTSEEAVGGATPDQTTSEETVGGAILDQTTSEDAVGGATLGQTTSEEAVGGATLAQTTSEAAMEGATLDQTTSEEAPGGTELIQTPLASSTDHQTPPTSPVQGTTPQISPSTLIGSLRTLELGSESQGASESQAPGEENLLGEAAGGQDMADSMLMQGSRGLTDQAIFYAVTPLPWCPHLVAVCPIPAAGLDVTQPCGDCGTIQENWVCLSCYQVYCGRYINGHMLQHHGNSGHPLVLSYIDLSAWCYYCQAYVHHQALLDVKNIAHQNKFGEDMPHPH

MDA-MB-231 [9] = assay: Cytotoxicity against human MDA-MB-231 cells assessed as inhibition of cell growth by SRB assay; assay type: functional, cell-based
HCT-116 [10] = assay: Cytotoxicity against human HCT-116 cells assessed as inhibition of cell growth by SRB assay; assay type: functional, cell-based
HCT-116 [11] = assay: Antitumor activity against human HCT-116 cells xenografted in mouse assessed as tumor growth inhibition at 15 mg/kg, iv relative to control; assay type: functional; settings: read-out: TGI
ASPC1 [12] = assay: Cytotoxicity against human ASPC1 cells assessed as inhibition of cell growth by MTT assay; assay type: functional, cell-based
SU-DHL-6 = assay: Cytotoxicity against human SU-DHL-6 cells assessed as inhibition of cell growth by SRB assay; assay type: functional, cell-based
Ramos = assay: Cytotoxicity against human Ramos cells assessed as inhibition of cell growth by SRB assay; assay type: functional, cell-based
SNU-398 = assay: Cytotoxicity against human SNU-398 cells assessed as inhibition of cell growth by SRB assay; assay type: functional, cell-based
HT-29 [13] = assay: Antitumor activity against human HT-29 cells xenografted in mouse assessed as tumor growth inhibition at 25 mg/kg, po relative to control; assay type: functional; settings: read-out: TGI
HT-29 [14] = assay: Antitumor activity against human HT-29 cells xenografted in mouse assessed as tumor growth inhibition at 50 mg/kg, po relative to control; assay type: functional; settings: read-out: TGI
HT-29 [15] = assay: Antitumor activity against human HT-29 cells xenografted in mouse assessed as tumor growth inhibition at 100 mg/kg, po relative to control; assay type: functional; settings: read-out: TGI
[16] = Cytotoxicity against human HuT 102 cells assessed as inhibition of cell growth by MTT assay; assay type: functional, cell-based
HL-60 = assay: Antiproliferative activity against human HL-60 cells assessed as inhibition of cell growth by MTT assay; assay type: functional, cell-based
[17] = Cytotoxicity against African green monkey Vero cells assessed as inhibition of cell growth by MTT assay; assay type: toxicity, cell-based, Chlorocebus sabaeus
PC-3 [18] = assay: Cytotoxicity against human PC-3 cells assessed as inhibition of cell growth by MTT assay; assay type: functional, cell-based
MDA-MB-231 [19] = assay: Cytotoxicity against human MDA-MB-231 cells assessed as inhibition of cell growth by MTT assay; assay type: functional, cell-based
A549 [20] = assay: Cytotoxicity against human A549 cells assessed as inhibition of cell growth by MTT assay; assay type: functional, cell-based
[21] = Cytotoxicity against human RWPE-1 cells assessed as inhibition of cell growth by MTT assay; assay type: toxicity, cell-based
HepG2 = assay: Cytotoxicity against human HepG2 cells assessed as inhibition of cell growth by MTT assay; assay type: functional, cell-based
MDA-MB-231 [22] = assay: Cytotoxicity against human MDA-MB-231 cells assessed as inhibition of cell growth measured after 24 hrs by MTT assay; assay type: functional, cell-based; settings: MDA-MB-231, 24 h
Ehrlich = assay: Antitumor activity against mouse EAC cells implanted in mouse assessed as survival rate at 125 mg/kg, ip administered for 10 days; assay type: functional; settings: 240 h, time 10 day
HCT-116 [23] = assay: Cytotoxicity against human HCT-116 cells assessed as inhibition of cell growth measured after 24 hrs by MTT assay; assay type: functional, cell-based; settings: HCT-116, 24 h
MCF7 = assay: Cytotoxicity against human MCF7 cells assessed as inhibition of cell growth measured after 24 hrs by MTT assay; assay type: functional, cell-based; settings: MCF7, 24 h

Sequence of Histone deacetylase 2 (Q92769 whole entry): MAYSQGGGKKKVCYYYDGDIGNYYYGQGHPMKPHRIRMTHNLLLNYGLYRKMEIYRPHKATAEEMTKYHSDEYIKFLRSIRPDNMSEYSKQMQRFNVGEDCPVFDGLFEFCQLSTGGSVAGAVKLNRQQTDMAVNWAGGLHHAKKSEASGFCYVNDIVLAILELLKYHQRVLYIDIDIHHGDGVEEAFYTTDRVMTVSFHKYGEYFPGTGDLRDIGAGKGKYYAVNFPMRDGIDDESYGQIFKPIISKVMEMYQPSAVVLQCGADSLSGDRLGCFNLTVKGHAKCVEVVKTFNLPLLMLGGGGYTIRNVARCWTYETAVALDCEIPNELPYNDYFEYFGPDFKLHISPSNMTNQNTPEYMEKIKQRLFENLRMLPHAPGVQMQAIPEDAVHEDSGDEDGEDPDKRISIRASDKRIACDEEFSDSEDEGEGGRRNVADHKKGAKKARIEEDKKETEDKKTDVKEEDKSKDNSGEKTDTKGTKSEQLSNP
Sequence of Histone deacetylase 1 (Q13547 whole entry): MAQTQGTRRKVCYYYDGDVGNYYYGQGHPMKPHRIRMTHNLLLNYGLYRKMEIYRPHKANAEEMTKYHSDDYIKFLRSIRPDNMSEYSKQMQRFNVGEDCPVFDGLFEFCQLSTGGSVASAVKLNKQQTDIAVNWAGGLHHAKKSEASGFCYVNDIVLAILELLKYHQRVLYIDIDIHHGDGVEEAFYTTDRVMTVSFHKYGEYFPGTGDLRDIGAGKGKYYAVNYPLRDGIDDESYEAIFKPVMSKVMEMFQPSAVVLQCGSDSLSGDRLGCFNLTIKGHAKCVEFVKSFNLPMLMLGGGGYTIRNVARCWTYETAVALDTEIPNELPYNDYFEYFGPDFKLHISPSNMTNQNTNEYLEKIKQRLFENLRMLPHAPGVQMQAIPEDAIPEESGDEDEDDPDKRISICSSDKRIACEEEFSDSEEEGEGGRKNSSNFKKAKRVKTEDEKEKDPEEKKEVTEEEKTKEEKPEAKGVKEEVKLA
Sequence of Histone deacetylase 3 (O15379 whole entry): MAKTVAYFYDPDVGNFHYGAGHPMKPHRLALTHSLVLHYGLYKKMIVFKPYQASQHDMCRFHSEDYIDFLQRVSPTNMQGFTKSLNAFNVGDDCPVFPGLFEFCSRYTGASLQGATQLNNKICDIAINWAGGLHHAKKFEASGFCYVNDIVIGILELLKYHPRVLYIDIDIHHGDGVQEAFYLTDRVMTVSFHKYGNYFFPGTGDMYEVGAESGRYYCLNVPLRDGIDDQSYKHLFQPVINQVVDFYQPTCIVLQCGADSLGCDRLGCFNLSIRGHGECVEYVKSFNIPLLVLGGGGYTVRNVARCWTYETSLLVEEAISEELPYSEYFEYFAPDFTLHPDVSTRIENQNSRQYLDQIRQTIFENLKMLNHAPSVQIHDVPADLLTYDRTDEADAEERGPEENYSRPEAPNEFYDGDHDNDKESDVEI

SMILES: O=C(/C=C/c1ccc(CN2C/C(=N\O)c3cc(Cl)ccc32)cc1)NO
Ratio IC50 (PC-3 [1]): 1.8
Ratio IC50 (ASPC1 [2]): 1.8
IC50 (SW-620 [3]): 470 nM
IC50 (PC-3 [4]): 470 nM
Ratio IC50 (SW-620 [5]): 1.8
IC50 (Histone deacetylase 2): 86 nM
IC50 (ASPC1 [6]): 470 nM

IC50 (Histone deacetylase 3): 5.13 nM
IC50 (Histone deacetylase 1): 5.13 nM
IC50 [8]: 5.13 nM
IC50 (Histone deacetylase 2): 5.13 nM
SMILES: Cc1[nH]c2ccccc2c1CCNS(=O)(=O)c1ccc(/C=C/C(=O)NO)cc1
GI50 (A549 [7]): 29 nM
IC50 (MDA-MB-231 [9]): 29 nM
IC50 (HCT-116 [10]): 29 nM
inhibition in vivo at 15 mg/kg (HCT-116 [11]): 50.7%
IC50 (ASPC1 [12]): 490 nM
IC50 (ASPC1 [6]): 29 nM

SMILES: CNC(=O)c1cc(Oc2ccc(NC(=O)Nc3ccc(Cl)c(C(F)(F)F)c3)cc2)ccn1 [SORAFENIB]
IC50 (SU-DHL-6): 1 nM
IC50 (Ramos): 1 nM
IC50 (SNU-398): 1 nM

SMILES: C[C@H](NC(=O)c1nc(-c2ncc(-c3ccccc3)s2)sc1C1CC1)c1ccc(C(=O)NO)cc1
inhibition in vivo at 25 mg/kg (HT-29 [13]): 39.4%
inhibition in vivo at 50 mg/kg (HT-29 [14]): 40.7%
inhibition in vivo at 100 mg/kg (HT-29 [15]): 62.5%

IC50 (HL-60): 770 nM
SMILES: O=C(/C=C/c1ccc(S(=O)(=O)Nc2ccccc2C(F)(F)F)cc1)NO
IC50 [16]: 770 nM

SMILES: N#Cc1cccc(-c2cn(CCCCCCn3cccc(/C=C/C(=O)NO)c3=O)nn2)c1
IC50 (Histone deacetylase 1): 35 nM
IC50 [17]: > 50000 nM
IC50 (PC-3 [18]): 600 nM
IC50 (MDA-MB-231 [19]): 600 nM
IC50 (A549 [20]): 600 nM
IC50 [8]: 49 nM
IC50 [21]: > 50000 nM
IC50 (HepG2): 600 nM

SMILES: Nn1c(SCCC(=O)NO)nnc1-c1cccnc1
IC50 (MDA-MB-231 [22]): 10400 nM
survival at 125 mg/kg (Ehrlich): 205%
IC50 (HCT-116 [23]): 10400 nM
IC50 (MCF7): 10400 nM
